According to paper PMC12311110 (Nature Communications, 2025):
Where two headings read alike, the source gives them in different places. Values belong to the compound of their own block, whether it stands above or below them. No end group written: not given here.

Tests used:
[1] = test system: colocalization with VPS35 or SNX1 in HeLa cells; test: Immunofluorescence colocalization analysis (Manders/Pearson coefficients); type: cell-based, human; conditions: mean of the 3 experiment averages (n = 3)
Description: HeLa cells were seeded onto 13 mm coverslips. Cells were fixed in 4% (v/v) paraformaldehyde (PFA) (Pierce, 28906) in PBS for 20 min and permeabilised in 0.1% (v/v) Triton X-100 in PBS (Sigma-Aldrich), or in 0.1% (w/v) saponin (sigma-Aldrich) in PBS when labelling LAMP1 compartments, for 5 min followed by blocking with 2% (w/v) BSA (Sigma, 05482) in PBS for 30 min. Coverslips were stained with primary antibodies for 1 hr followed by secondary antibodies for 30 min, then mounted onto glass microscope slides with Fluoromount-G (Invitrogen, 00-4958-02).
Confocal microscope images were taken on a Leica SP5-II confocal laser scanning microscope attached to a Leica DMI 6000 inverted epifluorescence microscope or a Leica SP8 confocal laser scanning microscope attached to a Leica DM l8 inverted epifluorescence microscope (Leica Microsystems), with a 63x UV oil immersion lens, numerical aperture 1.4 (Leica Microsystems, 506192). For the Leica SP8 microscope, ‘lightning’ adaptive image restoration was used to generate deconvolved representative images. Colocalization analysis was performed using Volocity 6.3 software (PerkinElmer) or JACOP plugin from ImageJ-FIJI software. Spinning disk high-resolution images were acquired on an IXplore SpinSR system (Olympus) consisting of an IX83 microscope frame with a CO2 and temperature chamber (Olympus), SoRa W1 twin cam spinning disk unit (Yokogawa) and two back-thinned Fusion BT sCMOS cameras (Hamamatsu). A 488 nm or 561 nm laser provided excitation for the green and red channels, respectively. The SoRa disk with an additional 3.2x magnification changer was used for imaging with excitation light focused to the sample using a 60x/1.4NA oil immersion lens. The system operated in simultaneous twin-cam mode, and the desired fluorescence was selected through the use of either a 525/50 nm or 617/73 nm bandpass filter for the green or red channel, respectively.

hRetromer = target: T1, hRetromer (Homo sapiens, UniProt O75436+Q96QK1+Q9UBQ0); test: Isothermal titration calorimetry (ITC) of binding to Retromer; conditions: 25 °C; for -TΔS / ΔG / ΔH / Kd: ITC, mean of triplicate titrations
T1 construct: GST (pGEX4T-2, thrombin site plus linker) (N, cleaved yes); made in house; host or cells: E. coli BL21 (DE3)
Description: All the bacteria constructs were expressed in BL21 (DE3) cells using the autoinduction method. In brief, cultures grown in complex medium were incubated at 37 °C for 4 h, followed by overnight growth at 20 °C before harvesting for purification. […] In all cases, the soluble fractions clarified by centrifugation were loaded onto pre-equilibrated glutathione sepharose (GE healthcare) for initial purification. For Retromer, an additional Talon® resin purification step was performed to ensure the correct stoichiometry. GST-tag removal was carried out co-column overnight by adding thrombin for Human Retromer and PreScission protease for TBC1D13. The GST-tag removed fraction was further purified by size-exclusion chromatography (SEC) using a Superdex 200 (16/600) column (GE Healthcare) equilibrated with buffer containing 50 mM Tris-HCl pH 7.5, 200 mM NaCl, 2 mM β-ME.
The effect of cyclic peptide was assessed by pre-mixing 140 µM RT-D1 into 14 µM Retromer before titrating with 1 mM of native DENND4C1189-1206 peptide. For the binding experiment between Retromer and TBC1D13, 530 µM of TBC1D13 was titrated into 14 µM Retromer. The effect of the cyclic peptide was tested using the same concentration of RT-D1 as described above. All ITC experiments consisted of an initial 0.4 μl (not used in data processing), followed by 12 serial injections of 3.22 μl each with 180 sec intervals. The resulting titration data were integrated with the Malvern software package by fitting and normalised data to a single-site binding model. This yielded the thermodynamic parameters for all binding experiments, including the dissociation constant (Kd), enthalpy (∆H), Gibbs free energy (∆G) and -T∆S. The stoichiometry (N) was refined initially, and if the value was close to 1, then it was set to exactly 1.0 for calculation. The data presented are the mean of triplicate titrations for each experiment.

[2] = test system: HeLa lines expressing the BioID1 chimeric versions; test: GLUT1 and α5β1-integrin trafficking (lysosomal missorting/colocalization with LAMP1) after biotin incubation; type: cell-based, human; conditions: 24 h incubation with 50 µM biotin; HeLa lines expressing the BioID1 chimeras; confocal imaging
Description: To explore the robustness of the proximity labelling, we performed an initial biased identification of the biotinylated proteins using western analysis of target proteins. Although 12 h incubation with biotin was enough to label some interactors, we chose to perform all experiments using 24 h incubation to maximise the detection of weak and low abundance proximity proteins, and the potential to identify cargo proteins transiting through the sub-domains (Supplementary Fig. 2H). Importantly, we tested whether the actual biotin-labelling process had any detectable effect on Retromer and Retriever-dependent cargo sorting.
HeLa cells were seeded onto 13 mm coverslips. […]
Confocal microscope images were taken on a Leica SP5-II confocal laser scanning microscope attached to a Leica DMI 6000 inverted epifluorescence microscope or a Leica SP8 confocal laser scanning microscope attached to a Leica DM l8 inverted epifluorescence microscope (Leica Microsystems), with a 63x UV oil immersion lens, numerical aperture 1.4 (Leica Microsystems, 506192). […] The system operated in simultaneous twin-cam mode, and the desired fluorescence was selected through the use of either a 525/50 nm or 617/73 nm bandpass filter for the green or red channel, respectively. […]

[3] = 1 mM DENND4C1189-1206 peptide (native or L1204A) titrated into 14 µM Retromer
[4] = 140 µM RT-D1 pre-mixed into 14 µM Retromer, then titrated with 1 mM native DENND4C1189-1206 peptide

Compound: GFP-DENND4C WT
GFP-DENND4C dots/section [1]: 55.5 | M1 GFP-DENND4C/VPS35 (Manders coefficient) [1]: 0.4133 | M2 GFP-DENND4C/VPS35 (Manders coefficient) [1]: 0.28

Compound: GFP-DENND4C L1201A
GFP-DENND4C dots/section [1]: 11.1 | M1 GFP-DENND4C/VPS35 (Manders coefficient) [1]: 0.06333 | M2 GFP-DENND4C/VPS35 (Manders coefficient) [1]: 0.06433

Compound: O=C(O)CCCC[C@@H]1SC[C@@H]2NC(=O)N[C@@H]21 [biotin]
Effect of biotin labelling on trafficking of GLUT1 or α5β1-integrin [2]: did not detect significant changes

Compound: hDENND4C1189-1206 + RT-D1: native DENND4C1189-1206 peptide titrated into Retromer pre-mixed with 140 µM RT-D1 (AKVVQREDVETGLDPLSL; premixed with Retromer and RT-D1; UniProt Q5VZ89 1189-1206, looked up, fragment)
-TΔS (hRetromer; [4]): No binding detected | Kd (hRetromer; [4]): No binding detected | ΔG (hRetromer; [4]): No binding detected | ΔH (hRetromer; [4]): No binding detected

Now from value to compound:

Effect of competing RT-D1 on binding of the DENND4C PL-containing peptide (hRetromer; ITC competition, 140 µM RT-D1 pre-mixed into 14 µM Retromer, 1 mM DENND4C1189-1206 peptide titrated): blocked
Compound: Ac-yIIDTPLGVFLSSLKRC-NH2 [RT-D1, reference compound]

-TΔS (hRetromer; [3]): No binding detected | ΔG (hRetromer; [3]): No binding detected | ΔH (hRetromer; [3]): No binding detected | Kd (hRetromer; Microcal PEAQ-ITC, 1 mM DENND4C1189-1206 peptide (native or L1204A) titrated into 14 µM Retromer, single-site binding model): No binding detected
Compound: AKVVQREDVETGLDPASL [hDENND4C1189-1206 L1204A]

Kd (hRetromer; Microcal PEAQ-ITC, 1 mM DENND4C1189-1206 peptide (native or L1204A) titrated into 14 µM Retromer, single-site binding model, read-out: Kd): 15.4 ± 0.85 µM
Compound: AKVVQREDVETGLDPLSL [hDENND4C1189-1206]
